# From patent US5556854A, “Pyridopyrimidinediones, processes for their preparation and their use as drugs” (Hoechst Aktiengesellschaft, priority 1993, dated 1996)
# Tested on: ischemic skeletal muscle (gastrocnemius-plantaris-soleus group)
# Assay: Contractility of the skeletal muscle after chronic ischemia (PVD fatigue model)
# Assay type: in vivo, male Wistar rats
# Conditions: PVD fatigue model: 6 mg/kg po, 7 days; after 5 minutes of stimulation, 24 h after last administration
# From the text: B) Action on the contractility of the skeletal muscle after chronic ischemia Ideas about the pathophysiology of chronic peripheral arterial occlusive disease have changed in recent years as interest has shifted increasingly from the macrocirculation to the microcirculation=disorders in the microcirculation manifest themselves in an inadequate supply of substrates with consequent tissue ischemia, which in turn leads to impairment of the function of the extremity in question. The compounds according to the invention were tested for their function-improving action by means of measurements of the contractile force in the ischemic skeletal muscle using the experimental set-up described below. The experimental animals used were male Wistar rats with a body weight of 380 to 410 g. With the animals under hexobarbital narcosis (®[…] Sodium, 200 mg/kg body weight ip), a monolateral ligature of the right femoral artery was made in the groin. After dusting with penicillin sulfonamide powder for the antibiotic protection of the wound, the small surgical wound was closed and the animals were observed continuously until fully awake. One week later, oral administration of the substance with a stomach tube was started (6 mg/kg body weight, carboxymethyl cellulose sodium suspension) and was continued for 7 days (single administration per day, ca. 7.30 am to 8.30 am). The contractile force was measured 24 h after the last administration of the substance so as to exclude acute effects, the experimental protocol being as follows: The animals were narcotized with ®Nembutal (pentobarbital sodium, 35 mg/kg body weight ip), the muscles of the extremity in question were exposed (gastrocnemius-plantaris-soleus group) and the tendon was connected to a force transducer with a preload of 50 g. A superfusion with isotonic solution (37° C.) served to avoid dehydration and cooling. The mean arterial blood pressure was recorded continuously via a cannulated carotid artery with the aid of a hemodynamometer in order to monitor the physiological state of the animals during the experiment. All the animals breathed spontaneously through an inserted endotracheal tube. After these preparations had been made, the muscle was caused to contract by direct electrical stimulation (2.5 mA, 2 Hz) (Stimulator I, Hugo Sachs, Federal Republic of Germany). The measurement parameter used for the action of the preparation was the absolute contractile force in grams after 5 minutes of stimulation. The change in the contractile force in comparison with the ischemic control muscle is given as the percentage change at this time (see Table 2).
row,SMILES,Change in the contractile force in comparison with the ischemic control muscle
1,"Cl.Cn1c(=O)[nH]c2c(c1=O)CN(Cc1ccccc1)CC2 [Compound 2, 6-Benzyl-3-methyl-5,6,7,8-tetrahydro-1H-pyrido[4,3-d]-pyrimidine-2,4-dione hydrochloride]",+136%
2,"Cn1c(=O)[nH]c2c(c1=O)CN(CCO)CC2 [Compound 8, 6-(2-Hydroxyethyl)-3-methyl-5,6,7,8-tetrahydro-1H-pyrido[4,3-d]pyrimidine-2,4-dione]",+151%
3,CCn1c2c(c(=O)n(C)c1=O)CN(Cc1ccccc1Cl)CC2 [Compound 16],+148%
4,Cn1c(=O)[nH]c2c(c1=O)CN(C(C(=O)O)c1ccccc1Cl)CC2 (stereo not shown) [Compound 20],+137%
5,O=c1[nH]c2c(c(=O)[nH]1)CN(Cc1ccccc1)CC2 [Compound 23],+129%
6,C=C(C)CN1CCc2[nH]c(=O)n(C)c(=O)c2C1 [Compound 26],+114%
7,Cn1c(=O)[nH]c2c(c1=O)CN(CCCO)CC2 [Compound 37],+45%
